Results published in patent US8999974B2, “Acyl piperazine derivatives as TTX-S blockers” (Raqualia Pharma Inc., priority 2010, dated 2015).

Tests used:
human NaV1.3 = molecular target: T1, human NaV1.3 (Homo sapiens, UniProt Q9NY46); test: FRET assay (EFS, FDSS) on HEK293 cells expressing human NaV1.3 channels; type: cell-based; details: for IC50: FRET assay, HEK293 cells expressing human NaV1.3, read-out: IC50 against Nav1.3
T1 construct: expressed in transfected cells; host or cells: HEK293
Summary of the method: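 Membrane potential in HEK293 cells stably expressing human NaV1.3, read by FRET (CC2-DMPE 10 µM / DiSBAC2(3) 15 µM with 0.555 mM VABSC-1) after electrical field stimulation, in HEPES-buffered saline pH 7.4. Compounds added after dye loading at room temperature. IC50 from normalized 440 nm fluorescence ratios.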

human Nav1.7 = molecular target: T2, human Nav1.7 (Homo sapiens, UniProt Q15858); test: FRET assay (EFS, FDSS) on CHO cells expressing human NaV1.7 channels; type: cell-based; details: for IC50: FRET assay, CHO cells expressing human NaV1.7, read-out: IC50 against Nav1.7
T2 construct: expressed in transfected cells; host or cells: CHO
Procedure: This screen was used to determine the effects of compounds on human NaV1.3, human Nav1.7, and human Nav1.5 channels, utilising electrical field stimulation (EFS) system in 96-well plate format on FDSS (Hamamatsu Photonics) platform. The change of membrane potential was monitored with FRET dye pair, oxonol (DiSBAC2(3)) and coumarin (CC2-DMPE).
CHO cells expressing human NaV1.7 channels were grown in T225 flasks, in a 5% CO2 humidified incubator to about 80% confluence. Media composition consisted of HAM/F12 with Glutamax I, 10% FCS, 100 units/ml Penicillin and 100 microgram/ml Hygromycin.
Protocol: • Seeded each cell lines (1×10^5 cells/well) into poly-D-lysine coated 96-well plates prior to experimentation. • Incubated at 37° C. in 5% CO2 for 24 hours. • Washed each well with assay buffer (140 mM NaCl, 4.5 mM KCl, 10 mM D-Glucose, 2 mM CaCl2, 1 mM MgCl2, 10 mM HEPES, pH 7.4 adjusted with NaOH) twice. • Added 1st loading solution containing 10 microM CC2-DMPE and 0.06% Pluronic F-127 in assay buffer. • Incubated the plate at room temperature in dark for 1 hour. • Removed 1st loading solution and added 2nd loading solution containing 15 microM DiSBAC2(3), 0.555 mM VABSC-1 and 0.004% Pluronic F-127 in assay buffer. • Placed the plate under the dark at room temperature for 25 minutes. • Added compound solutions into the assay plate. • Set the assay plate in FDSS and placed an EFS device on the plate. • Measured EFS-induced fluorescent response by FDSS.
The data were analyzed and reported as normalized ratios of intensities measured at […]. The process of calculating these ratios was performed as follows:
[formula] This analysis was performed using a computerized specific program designed for FDSS generated data. Fluorescence ratio values were plotted using XLfit to determine an IC50 value for each compound.

[1] = comparison compound of WO 2008147864

T1 sequence (Q9NY46 whole entry): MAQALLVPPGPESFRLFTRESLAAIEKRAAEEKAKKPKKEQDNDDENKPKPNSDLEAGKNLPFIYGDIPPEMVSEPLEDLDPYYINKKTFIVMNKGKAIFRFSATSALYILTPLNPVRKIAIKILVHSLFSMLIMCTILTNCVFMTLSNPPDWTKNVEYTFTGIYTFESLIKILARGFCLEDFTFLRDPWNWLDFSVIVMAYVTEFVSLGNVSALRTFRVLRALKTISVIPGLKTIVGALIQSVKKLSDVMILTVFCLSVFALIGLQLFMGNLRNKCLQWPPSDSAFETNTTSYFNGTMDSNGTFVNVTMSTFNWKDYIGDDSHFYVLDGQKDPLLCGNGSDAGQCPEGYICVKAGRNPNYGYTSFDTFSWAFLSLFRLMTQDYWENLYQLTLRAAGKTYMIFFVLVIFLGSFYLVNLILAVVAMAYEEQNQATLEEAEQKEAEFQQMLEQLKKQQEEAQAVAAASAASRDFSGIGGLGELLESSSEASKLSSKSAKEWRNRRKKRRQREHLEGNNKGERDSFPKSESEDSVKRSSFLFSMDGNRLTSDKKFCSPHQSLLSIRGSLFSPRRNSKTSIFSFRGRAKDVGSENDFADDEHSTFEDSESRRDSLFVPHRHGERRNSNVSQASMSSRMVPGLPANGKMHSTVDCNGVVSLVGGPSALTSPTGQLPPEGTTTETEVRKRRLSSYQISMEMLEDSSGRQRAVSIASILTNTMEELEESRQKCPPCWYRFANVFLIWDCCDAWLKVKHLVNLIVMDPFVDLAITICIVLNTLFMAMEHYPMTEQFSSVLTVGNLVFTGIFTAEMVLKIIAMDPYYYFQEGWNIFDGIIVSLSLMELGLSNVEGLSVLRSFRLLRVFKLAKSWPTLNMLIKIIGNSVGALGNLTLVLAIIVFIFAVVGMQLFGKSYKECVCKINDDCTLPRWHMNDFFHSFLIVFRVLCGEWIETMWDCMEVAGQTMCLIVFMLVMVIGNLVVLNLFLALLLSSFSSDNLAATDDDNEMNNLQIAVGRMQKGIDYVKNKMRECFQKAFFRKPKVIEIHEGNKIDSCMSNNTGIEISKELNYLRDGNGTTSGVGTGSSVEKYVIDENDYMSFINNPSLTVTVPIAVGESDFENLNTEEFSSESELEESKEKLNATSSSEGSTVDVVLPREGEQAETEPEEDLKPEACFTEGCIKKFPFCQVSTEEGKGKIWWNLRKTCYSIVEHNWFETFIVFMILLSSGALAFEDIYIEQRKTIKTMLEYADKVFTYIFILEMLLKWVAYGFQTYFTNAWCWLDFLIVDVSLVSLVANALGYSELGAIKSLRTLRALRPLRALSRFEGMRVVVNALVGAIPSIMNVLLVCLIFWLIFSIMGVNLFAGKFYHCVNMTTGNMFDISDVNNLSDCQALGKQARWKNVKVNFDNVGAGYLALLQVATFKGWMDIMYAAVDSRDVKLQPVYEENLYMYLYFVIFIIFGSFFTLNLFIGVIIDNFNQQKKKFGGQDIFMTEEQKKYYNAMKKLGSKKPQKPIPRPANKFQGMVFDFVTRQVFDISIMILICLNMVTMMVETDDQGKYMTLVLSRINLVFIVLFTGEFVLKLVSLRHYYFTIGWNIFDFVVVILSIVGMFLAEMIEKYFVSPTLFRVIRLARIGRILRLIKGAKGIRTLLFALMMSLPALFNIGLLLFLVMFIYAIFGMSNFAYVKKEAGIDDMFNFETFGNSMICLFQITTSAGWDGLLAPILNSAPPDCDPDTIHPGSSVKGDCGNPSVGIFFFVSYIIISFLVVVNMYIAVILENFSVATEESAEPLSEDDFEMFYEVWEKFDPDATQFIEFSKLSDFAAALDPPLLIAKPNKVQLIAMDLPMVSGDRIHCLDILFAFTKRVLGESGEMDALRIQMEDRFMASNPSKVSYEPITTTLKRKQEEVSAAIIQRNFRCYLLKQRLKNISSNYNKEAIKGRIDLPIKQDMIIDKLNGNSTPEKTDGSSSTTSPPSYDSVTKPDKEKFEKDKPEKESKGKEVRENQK
T2 sequence (Q15858 whole entry): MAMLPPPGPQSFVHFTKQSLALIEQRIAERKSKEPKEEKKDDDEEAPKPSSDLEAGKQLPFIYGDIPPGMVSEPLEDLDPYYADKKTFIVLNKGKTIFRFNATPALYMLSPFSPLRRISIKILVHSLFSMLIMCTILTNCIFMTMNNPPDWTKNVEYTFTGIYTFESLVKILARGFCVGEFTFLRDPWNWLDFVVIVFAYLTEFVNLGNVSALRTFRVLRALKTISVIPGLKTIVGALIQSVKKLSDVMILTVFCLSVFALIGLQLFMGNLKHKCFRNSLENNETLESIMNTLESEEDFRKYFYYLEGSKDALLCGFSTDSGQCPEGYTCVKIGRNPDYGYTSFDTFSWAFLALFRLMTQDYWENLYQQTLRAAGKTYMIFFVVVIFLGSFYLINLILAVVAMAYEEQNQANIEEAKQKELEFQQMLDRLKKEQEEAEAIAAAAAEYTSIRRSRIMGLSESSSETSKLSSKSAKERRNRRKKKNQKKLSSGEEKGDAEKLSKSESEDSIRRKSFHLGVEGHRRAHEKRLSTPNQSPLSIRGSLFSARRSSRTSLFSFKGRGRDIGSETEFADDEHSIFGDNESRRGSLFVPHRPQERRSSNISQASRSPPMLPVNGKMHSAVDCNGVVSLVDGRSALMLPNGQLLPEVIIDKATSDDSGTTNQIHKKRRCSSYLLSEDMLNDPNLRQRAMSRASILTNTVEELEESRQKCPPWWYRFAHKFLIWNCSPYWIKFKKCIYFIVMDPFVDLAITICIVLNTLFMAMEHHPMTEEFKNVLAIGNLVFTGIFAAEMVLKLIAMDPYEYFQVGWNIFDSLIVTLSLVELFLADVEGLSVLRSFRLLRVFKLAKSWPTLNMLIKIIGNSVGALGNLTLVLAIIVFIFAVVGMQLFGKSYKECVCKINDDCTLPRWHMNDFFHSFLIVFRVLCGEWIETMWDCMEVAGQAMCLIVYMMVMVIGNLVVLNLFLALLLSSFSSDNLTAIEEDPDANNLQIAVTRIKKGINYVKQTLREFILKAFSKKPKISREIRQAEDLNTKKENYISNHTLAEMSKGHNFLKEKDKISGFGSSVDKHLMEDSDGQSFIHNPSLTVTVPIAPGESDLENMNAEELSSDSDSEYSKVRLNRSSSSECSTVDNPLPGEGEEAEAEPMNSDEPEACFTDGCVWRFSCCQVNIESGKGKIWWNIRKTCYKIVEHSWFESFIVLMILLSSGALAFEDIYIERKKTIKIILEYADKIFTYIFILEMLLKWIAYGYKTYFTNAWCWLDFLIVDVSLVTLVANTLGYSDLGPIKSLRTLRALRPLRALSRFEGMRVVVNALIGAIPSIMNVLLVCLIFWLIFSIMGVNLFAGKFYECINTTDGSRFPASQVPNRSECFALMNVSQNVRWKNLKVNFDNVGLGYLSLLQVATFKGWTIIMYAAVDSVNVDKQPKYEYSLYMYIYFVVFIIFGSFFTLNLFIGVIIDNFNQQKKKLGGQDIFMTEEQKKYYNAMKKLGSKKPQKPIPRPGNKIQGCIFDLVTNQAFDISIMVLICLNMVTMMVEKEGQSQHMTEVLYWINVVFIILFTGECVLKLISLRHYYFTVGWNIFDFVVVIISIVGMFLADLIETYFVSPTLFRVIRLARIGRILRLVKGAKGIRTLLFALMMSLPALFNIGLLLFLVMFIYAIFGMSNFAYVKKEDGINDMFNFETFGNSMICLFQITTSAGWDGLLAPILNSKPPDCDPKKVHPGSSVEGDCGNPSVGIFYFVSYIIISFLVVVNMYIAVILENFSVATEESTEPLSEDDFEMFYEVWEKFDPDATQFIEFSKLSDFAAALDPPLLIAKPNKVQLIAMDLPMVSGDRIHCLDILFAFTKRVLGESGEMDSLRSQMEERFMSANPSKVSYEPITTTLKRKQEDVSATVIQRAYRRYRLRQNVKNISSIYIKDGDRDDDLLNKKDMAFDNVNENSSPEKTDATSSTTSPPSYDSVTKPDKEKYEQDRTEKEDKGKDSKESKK

| activity against NaV1.3 (human NaV1.3; [1]) | activity against NaV1.7 (human Nav1.7; [1]) | SMILES | IC50 (human NaV1.3) [µM] | IC50 (human Nav1.7) [µM] |
| --- | --- | --- | --- | --- |
| no activity | no activity | O=C(c1ccc2c(=O)n(CCc3ccccc3)c(=O)[nH]c2c1)N1CCN(c2ncccn2)CC1 [3-(2-phenylethyl)-7-[(4-pyrimidin-2-ylpiperazin-1-yl)carbonyl]quinazoline-2,4(1H,3H)-dione] |  |  |
|  |  | CC(C)COc1cc(N2CCN(C(=O)c3cccc(OC(F)(F)F)c3)CC2)ncn1 [Example 15, (4-(6-isobutoxypyrimidin-4-yl)piperazin-1-yl)(3-(trifluoromethoxy)phenyl)methanone] | < 3 | < 3 |
|  |  | CC(C)COc1cc(N2CCN(C(=O)c3nn(C)c4ccccc34)CC2)ncn1 [Example 22, (4-(6-isobutoxypyrimidin-4-yl)piperazin-1-yl)(1-methyl-1H-indazol-3-yl)methanone] | < 3 | < 3 |
|  |  | CC(C)COc1cc(N2CCN(C(=O)COc3ccc(F)cc3)CC2)ncn1 [Example 24, 2-(4-fluorophenoxy)-1-(4-(6-isobutoxypyrimidin-4-yl)piperazin-1-yl)ethanone] | < 3 | < 3 |
|  |  | CC(C)COc1cc(N2CCN(C(=O)CCn3ccc4ccccc43)CC2)ncn1 [Example 59, 3-(1H-indol-1-yl)-1-(4-(6-isobutoxypyrimidin-4-yl)piperazin-1-yl)propan-1-one] | < 3 | < 3 |
|  |  | COc1cccc(OCC(=O)N2CCN(c3cc(OCC(C)C)ncn3)CC2)c1 [Example 70, 1-(4-(6-isobutoxypyrimidin-4-yl)piperazin-1-yl)-2-(3-methoxyphenoxy)ethanone] | < 3 | < 3 |
|  |  | CC(C)COc1cc(N2CCN(C(=O)CNC(=O)c3ccc(OCC(F)(F)F)nc3)CC2)ncn1 [Example 74, N-(2-(4-(6-isobutoxypyrimidin-4-yl)piperazin-1-yl)-2-oxoethyl)-6-(2,2,2-trifluoroethoxy)nicotinamide] | < 3 | < 3 |
|  |  | CC(C)COc1cc(N2CCN(C(=O)CNC(=O)c3nn(C)c4ccccc34)CC2)ncn1 [Example 76, N-(2-(4-(6-isobutoxypyrimidin-4-yl)piperazin-1-yl)-2-oxoethyl)-1-methyl-1H-indazole-3-carboxamide] |  | < 3 |
|  |  | CC(C)COc1cc(N2CCN(C(=O)COc3cccc4cccnc34)CC2)ncn1 [Example 77, 1-(4-(6-isobutoxypyrimidin-4-yl)piperazin-1-yl)-2-(quinolin-8-yloxy)ethanone] | < 3 | < 3 |
|  |  | CC(C)COc1cc(N2CCN(C(=O)c3cc4ccccc4s3)CC2)ncn1 [Example 86] | < 3 | < 3 |
|  |  | CC(C)COc1cc(N2CCN(C(=O)CCOc3ccc(F)cc3)CC2)ncn1 [Example 89, 3-(4-fluorophenoxy)-1-(4-(6-isobutoxypyrimidin-4-yl)piperazin-1-yl)propan-1-one] | < 3 | < 3 |
|  |  | CC(C)COc1cc(N2CCN(C(=O)c3cc(-c4ccccc4)on3)CC2)ncn1 [Example 90] | < 3 | < 3 |
|  |  | CC(C)COc1cc(N2CCN(C(=O)CNC3CCCCC3)CC2)ncn1 [Example 100, 2-(cyclohexylamino)-1-(4-(6-isobutoxypyrimidin-4-yl)piperazin-1-yl)ethanone] |  | < 3 |
|  |  | CC(C)COc1cc(N2CCN(C(=O)Cc3c[nH]c4ccccc34)CC2)ncn1 [Example 102, 2-(1H-indol-3-yl)-1-(4-(6-isobutoxypyrimidin-4-yl)piperazin-1-yl)ethanone] |  | < 3 |
|  |  | CC(C)COc1cc(N2CCN(C(=O)Cn3nc4ccccc4n3)CC2)ncn1 [Example 105, 2-(2H-benzo[d][1,2,3]triazol-2-yl)-1-(4-(6-isobutoxypyrimidin-4-yl)piperazin-1-yl)ethanone] | < 3 | < 3 |
|  |  | O=C(Cc1c[nH]c2ccc(F)cc12)N1CCN(c2cc(OCC(F)(F)F)ncn2)CC1 [Example 110, 2-(5-fluoro-1H-indol-3-yl)-1-(4-(6-(2,2,2-trifluoroethoxy)pyrimidin-4-yl)piperazin-1-yl)ethanone] |  | < 3 |
|  |  | CC(C)COc1cc(N2CCN(C(=O)CSc3ccccc3)CC2)ncn1 [Example 120, 1-(4-(6-isobutoxypyrimidin-4-yl)piperazin-1-yl)-2-(phenylthio)ethanone] | < 3 | < 3 |
|  |  | CC(C)COc1cc(N2CCN(C(=O)COc3ccc(F)c4cccnc34)CC2)ncn1 [Example 129, 2-((5-fluoroquinolin-8-yl)oxy)-1-(4-(6-isobutoxypyrimidin-4-yl)piperazin-1-yl)ethanone] | < 3 | < 3 |
|  |  | CC(C)COc1cc(N2CCN(C(=O)CCOc3ccccc3)CC2)ncn1 [Example 131, 1-(4-(6-isobutoxypyrimidin-4-yl)piperazin-1-yl)-3-phenoxypropan-1-one] | < 3 | < 3 |
|  |  | Cc1cccc(OCCC(=O)N2CCN(c3cc(OCC(C)C)ncn3)CC2)c1 [Example 132, 1-(4-(6-isobutoxypyrimidin-4-yl)piperazin-1-yl)-3-(m-tolyloxy)propan-1-one] | < 3 | < 3 |
|  |  | CC(C)COc1cc(N2CCN(C(=O)COc3cccc4[nH]ccc34)CC2)ncn1 [Example 137, 2-((1H-indol-4-yl)oxy)-1-(4-(6-isobutoxypyrimidin-4-yl)piperazin-1-yl)ethanone] |  | < 3 |
|  |  | CC(C)COc1cc(N2CCN(C(=O)COc3ccccc3C(F)(F)F)CC2)ncn1 [Example 143, 1-(4-(6-isobutoxypyrimidin-4-yl)piperazin-1-yl)-2-(2-(trifluoromethyl)phenoxy)ethanone] |  | < 3 |
|  |  | O=C(COc1cccc2cccnc12)N1CCN(c2cc(OCC(F)(F)F)ncn2)CC1 [Example 156, 2-(quinolin-8-yloxy)-1-(4-(6-(2,2,2-trifluoroethoxy)pyrimidin-4-yl)piperazin-1-yl)ethanone] |  | < 3 |
|  |  | CC(C)COc1cc(N2CCN(C(=O)COc3ccc4ccccc4n3)CC2)ncn1 [Example 160, 1-(4-(6-isobutoxypyrimidin-4-yl)piperazin-1-yl)-2-(quinolin-2-yloxy)ethanone] |  | < 3 |
|  |  | O=C(c1csc(-c2ccccc2)n1)N1CCN(c2cc(OCC(F)(F)F)ncn2)CC1 [Example 166, (2-phenylthiazol-4-yl)(4-(6-(2,2,2-trifluoroethoxy)pyrimidin-4-yl)piperazin-1-yl)methanone] |  | < 3 |
|  |  | COc1ccccc1-c1cc(C(=O)N2CCN(c3cc(OCC(C)C)ncn3)CC2)[nH]n1 [Example 175] |  | < 3 |
|  |  | CC(C)COc1cc(N2CCN(C(=O)Cn3ccc4ccccc4c3=O)CC2)ncn1 [Example 236, 2-(2-(4-(6-isobutoxypyrimidin-4-yl)piperazin-1-yl)-2-oxoethyl)isoquinolin-1(2H)-one] |  | < 3 |
|  |  | O=C(c1cncn1-c1ccccc1C(F)(F)F)N1CCN(c2cc(OCC(F)(F)F)ncn2)CC1 [Example 243, (4-(6-(2,2,2-trifluoroethoxy)pyrimidin-4-yl)piperazin-1-yl)(1-(2-(trifluoromethyl)phenyl)-1H-imidazol-5-yl)methanone] |  | < 3 |
|  |  | Cc1onc(-c2ccccc2)c1C(=O)N1CCN(c2cc(OCC(F)(F)F)ncn2)CC1 [Example 245, (5-methyl-3-phenylisoxazol-4-yl)(4-(6-(2,2,2-trifluoroethoxy)pyrimidin-4-yl)piperazin-1-yl)methanone] |  | < 3 |
